From patent publication US8822451B2, “Modulators of ATP-binding cassette transporters” (Vertex Pharmaceuticals Incorporated, priority 2005, dated 2014)

Target: T1, […]F508-CFTR (Homo sapiens, UniProt P13569, DEL508-508)
T1 construct: expressed in transfected cells
Test: Assay results of Table 3: ΔF508-CFTR modulation, membrane potential optical assay (assay format not stated)
Type: cell-based
Details: NIH3T3 mouse fibroblasts stably expressing […]F508-CFTR (optical assays); for Efficacy: efficacy range; for EC50: potency range
Procedure, shortened: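 Two VIPR II FRET voltage-dye formats in ΔF508-CFTR NIH3T3 cells yield EC50 and efficacy. Potentiator mode: 27° C.-corrected cells get compound in Cl⁻-free medium, forskolin 2-10 μM after 22 s (final Cl⁻ 28 mM). Corrector mode: compound 16 h at 37° C., activation with forskolin 10 μM plus genistein 20 μM.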

T1 sequence (P13569 with tags, fused parts or gaps DEL508-508): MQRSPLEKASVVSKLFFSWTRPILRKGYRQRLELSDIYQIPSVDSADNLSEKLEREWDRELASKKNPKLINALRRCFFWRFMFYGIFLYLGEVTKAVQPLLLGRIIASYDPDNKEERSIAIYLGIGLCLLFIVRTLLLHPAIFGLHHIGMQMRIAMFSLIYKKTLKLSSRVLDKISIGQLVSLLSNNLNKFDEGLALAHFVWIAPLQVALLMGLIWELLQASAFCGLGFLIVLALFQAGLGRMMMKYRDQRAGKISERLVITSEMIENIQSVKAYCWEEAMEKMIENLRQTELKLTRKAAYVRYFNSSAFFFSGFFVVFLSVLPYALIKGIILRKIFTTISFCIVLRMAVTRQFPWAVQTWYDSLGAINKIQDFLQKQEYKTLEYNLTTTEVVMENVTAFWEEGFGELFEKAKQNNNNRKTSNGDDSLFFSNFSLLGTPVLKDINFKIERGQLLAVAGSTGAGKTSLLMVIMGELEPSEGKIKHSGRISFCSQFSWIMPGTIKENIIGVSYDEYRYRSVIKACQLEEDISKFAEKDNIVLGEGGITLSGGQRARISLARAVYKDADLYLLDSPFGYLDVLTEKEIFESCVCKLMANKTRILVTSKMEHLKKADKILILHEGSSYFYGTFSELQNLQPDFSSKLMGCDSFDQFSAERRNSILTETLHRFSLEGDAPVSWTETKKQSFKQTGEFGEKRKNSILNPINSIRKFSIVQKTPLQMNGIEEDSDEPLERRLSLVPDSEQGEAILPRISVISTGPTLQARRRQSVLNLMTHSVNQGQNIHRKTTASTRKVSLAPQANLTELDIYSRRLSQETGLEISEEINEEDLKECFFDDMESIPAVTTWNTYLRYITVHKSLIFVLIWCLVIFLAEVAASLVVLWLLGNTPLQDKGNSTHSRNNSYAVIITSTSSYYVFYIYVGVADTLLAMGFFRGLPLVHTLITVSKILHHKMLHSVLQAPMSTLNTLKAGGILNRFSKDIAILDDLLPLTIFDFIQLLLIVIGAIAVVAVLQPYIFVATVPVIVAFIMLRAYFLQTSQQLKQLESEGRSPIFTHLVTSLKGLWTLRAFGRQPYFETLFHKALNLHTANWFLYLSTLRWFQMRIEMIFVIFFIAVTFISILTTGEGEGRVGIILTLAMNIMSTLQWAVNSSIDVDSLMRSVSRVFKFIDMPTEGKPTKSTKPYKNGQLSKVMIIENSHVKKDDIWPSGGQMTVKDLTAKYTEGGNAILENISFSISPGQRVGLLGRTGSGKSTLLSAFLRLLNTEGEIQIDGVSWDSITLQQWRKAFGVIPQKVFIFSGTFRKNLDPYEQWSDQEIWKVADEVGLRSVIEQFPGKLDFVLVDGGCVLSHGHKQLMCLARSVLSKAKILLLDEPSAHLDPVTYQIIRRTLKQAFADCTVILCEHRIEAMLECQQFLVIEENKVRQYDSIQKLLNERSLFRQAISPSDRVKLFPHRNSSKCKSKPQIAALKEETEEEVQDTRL

Compound	Efficacy	EC50 [µM]
CCCCN(CC#N)c1nc(C(N)=O)cc(-c2ccccc2)n1 [Compound 13]	++ (++ corresponds to Efficacy between 100 and 50)	> 5
C=CCNc1nc(C(N)=O)cc(-c2ccccc2OC)n1 [Compound 178]	+++ (+++ corresponds to Efficacy greater than 100)	1 to 5
